For assay [1], the system named is mixture of Pseudomonas species containing predominantly Pseudomonas putida and Pseudomonas stutzeri. Kind of assay: Biocidal activity in slurry (Total Viable Count after inoculation). The conditions noted are these: GNCCS1 slurry; Tables 1, 2 and 4. The class given is cell-based. The protocol: (§1) All quoted bacterial counts (Total Viable Count (TVC) values are in cfu/ml) in the Tables herebelow are determined after 5 days following plate-out and in accordance with counting method described in “Bestimmung von aeroben mesophilen Keimen”, Schweizerisches Lebensmittelbuch, chapter 56, section 7.01, edition of 1985, revised version of 1988.
Biocide mixture 1 (BM1) is an aqueous solution containing 24% by weight of GDA and 1.5% by weight of a combination of CIT and MIT (in a weight ratio CIT:MIT of 3:1), relative to the total solution weight. BM1 and AMP were introduced into 50 g samples of each of the slurries indicated in Table 1 in the listed amounts (quoted in ppm based on the weight of the aqueous phase in the slurry). References were prepared according to the same protocol but in absence of AMP and in absence of AMP and BM1.
The slurry samples were then inoculated with 1 ml of a mixture of Pseudomonas species containing predominantly Pseudomonas putida and Pseudomonas stutzeri. Each of the samples was incubated at 30° C. for 72 hours. Thereafter, a 1:10 dilution in phosphate buffered saline (PBS) was plated on plate count agar (PCA). These plates were incubated at 30° C. and analysed after 5 days. […]

The subject of assay [2] is mixture of Pseudomonas species containing predominantly Pseudomonas putida and Pseudomonas stutzeri that are resistant to BM2. Kind of assay: Biocidal activity in slurry, BM2-resistant bacteria. In kind it is cell-based. The conditions noted are these: GNCCS1 slurry. The protocol: as §1
BM2 and AMP were introduced into 50 g samples of each of the slurries indicated in Table 5 in the listed amounts (quoted in ppm based on the weight of the aqueous phase in the slurry). A reference was prepared according to the same protocol but in absence of AMP. References were prepared according to the same protocol but in absence of AMP and in absence of AMP and BM2.
The slurry samples were then inoculated with 1 ml of a mixture of Pseudomonas species containing predominantly Pseudomonas putida and Pseudomonas stutzeri that are resistant to BM2. Each of the samples was incubated at 30° C. for 72 hours. Thereafter, a 1:10 dilution in phosphate buffered saline (PBS) was plated on plate count agar (PCA). These plates were incubated at 30° C. and analysed after 5 days.
Biocide mixture 2 (BM2) is an aqueous solution containing 85% by weight of EGHF and 1.5% by weight of a combination of CIT and MIT (in a weight ratio CIT:MIT of 3:1), relative to the total solution weight. […]

The test system of a further assay is Pseudomonas aeruginosa. Particulars: in combination with 500 ppm of triazine biocide; TSB-based plates; cited from earlier work.
The test system of assay [3] is mixture of Pseudomonas species containing predominantly Pseudomonas putida and Pseudomonas stutzeri that are resistant to OPP. Kind of assay: Biocidal activity in slurry, OPP-resistant bacteria. The conditions noted are these: GNCCS1 slurry. In kind it is cell-based. The protocol:
as §1
OPP, in the form of an aqueous solution having a concentration of 45%, and MEA were introduced into 50 g samples of each of the slurries indicated in Table 11 in the listed amounts (quoted in ppm active content based on the weight of the aqueous phase in the slurry). A reference was prepared according to the same protocol but in absence of MEA. References were prepared according to the same protocol but in absence of MEA and in absence of MEA and OPP.
The slurry samples were then inoculated with 1 ml of a mixture of Pseudomonas species containing predominantly Pseudomonas putida and Pseudomonas stutzeri that are resistant to OPP. Each of the samples was incubated at 30° C. for 72 hours. Thereafter, a 1:10 dilution in phosphate buffered saline (PBS) was plated on plate count agar (PCA). These plates were incubated at 30° C. and analysed after 5 days.
Test 59 below represents the same slurry as Test 58, but following a second inoculation of 1 ml of a mixture of Pseudomonas species. […]

The test system of assay [4] is mixture of Pseudomonas species containing predominantly Pseudomonas putida and Pseudomonas stutzeri that are resistant to BM1. Kind of assay: Biocidal activity in slurry, BM1-resistant bacteria. In kind it is cell-based. The conditions noted are these: GNCCS1 slurry. The protocol:
as §1
BM1 and AMP were introduced into 50 g samples of each of the slurries indicated in Table 3 in the listed amounts (quoted in ppm based on the weight of the aqueous phase in the slurry). References were prepared according to the same protocol but in absence of AMP and in absence of AMP and BM1.
The slurry samples were then inoculated with 1 ml of a mixture of Pseudomonas species containing predominantly Pseudomonas putida and Pseudomonas stutzeri that are resistant to BM1. Each of the samples was incubated at 30° C. for 72 hours. Thereafter, a 1:10 dilution in phosphate buffered saline (PBS) was plated on plate count agar (PCA). These plates were incubated at 30° C. and analysed after 5 days.
Biocide mixture 1 (BM1) is an aqueous solution containing 24% by weight of GDA and 1.5% by weight of a combination of CIT and MIT (in a weight ratio CIT:MIT of 3:1), relative to the total solution weight. […]

Each structure is given as a SMILES string. “Also recorded” adds a separate entry of the source.

Take `CC(C)(N)CO` [AMP, 2-amino-2-methyl-1-propanol]: the “biocide enhancement (in words)” value in assay [1] is “enhances the biocide function of BM1; also recorded: enhances the biocide function of BM2”; in assay [2], “enhances the biocide function of BM2”. Also, in the assay on Pseudomonas aeruginosa, the “amount of AMP needed to significantly influence the growth rate of the bacteria” value is listed as “more than 4 000 ppm”.

Consider `NCCO` [MEA, 2-aminoethanol], for which the “biocide enhancement (in words)” value in assay [3] is “enhances the biocide function of OPP”; in assay [4] it was “enhances the biocide function of BM1”; in assay [2] it was “enhances the biocide function of BM2”.

The values above are taken from patent US9006295B2, “Process for bacterial stabilizing of aqueous ground natural calcium carbonate and/or precipitated calcium carbonate and/or dolomite and/or surface-reacted calcium carbonate-comprising mineral preparations” (Omya International AG, priority 2009, dated 2015).
